Patent US8513418B2, “Substituted bicyclic methyl amine derivatives as sphingosine-1 phosphate receptors modulators” (Allergan, Inc., priority 2011, dated 2013)

Tests used:
[1] = molecular target: T1, human S1P1 receptor (Homo sapiens, UniProt P21453); assay: GTP γ35S binding assay for S1P1 activity; type: biochemical; conditions: membranes of cells stably expressing the S1P1 receptor
T1 construct: expressed in transfected cells; membranes of cells stably expressing the receptor
Procedure: Novel compounds were synthesized and tested for S1P1 activity using the GTP γ^35S binding assay. These compounds may be assessed for their ability to activate or block activation of the human S1P1 receptor in cells stably expressing the S1P1 receptor. GTP γ^35S binding was measured in the medium containing (mM) HEPES 25, pH 7.4, MgCl2 10, NaCl 100, dithitothreitol 0.5, digitonin 0.003%, 0.2 nM GTP γ^35S, and 5 μg membrane protein in a volume of 150 μl. Test compounds were included in the concentration range from 0.08 to 5,000 nM unless indicated otherwise. Membranes were incubated with 100 μM 5′-adenylylimmidodiphosphate for 30 min, and subsequently with 10 μM GDP for 10 min on ice. Drug solutions and membrane were mixed, and then reactions were initiated by adding GTP γ^35S and continued for 30 min at 25° C. Reaction mixtures were filtered over Whatman GF/B filters under vacuum, and washed three times with 3 mL of ice-cold buffer (HEPES 25, pH7.4, MgCl2 10 and NaCl 100). Filters were dried and mixed with scintillant, and counted for ^35S activity using a 8-counter. Agonist-induced GTP γ^35S binding was obtained by subtracting that in the absence of agonist. Binding data were analyzed using a non-linear regression method. In case of antagonist assay, the reaction mixture contained 10 nM […] in the presence of test antagonist at concentrations ranging from 0.08 to 5000 nM.
Activity potency: S1P1 receptor from GTP γ^35S: nM, (EC50).

[2] = system: female C57BL6 mice; assay: Lymphopenia assay in mice (in vivo blood lymphocyte depletion); conditions: after 24 hours
Procedure: Test drugs are prepared in a solution containing 3% (w/v) 2-hydroxy propyl β-cyclodextrin (HPBCD) and 1% DMSO to a final concentration of 1 mg/ml, and subcutaneously injected to female C57BL6 mice (CHARLES RIVERS) weighing 20-25 g at the dose of 10 mg/Kg. Blood samples are obtained by puncturing the submandibular skin with a Goldenrod animal lancet at 5, 24, 48, 72, and 96 hrs post drug application. Blood is collected into microvettes (SARSTEDT) containing EDTA tripotassium salt. Lymphocytes in blood samples are counted using a HEMAVET Multispecies Hematology System, HEMAVET HV950FS (Drew Scientific Inc.). (Hale, J. et al Bioorg. & Med. Chem. Lett. 14 (2004) 3351).
A lymphopenia assay in mice, as previously described, was employed to measure the in vivo blood lymphocyte depletion after dosing Compound 5 (FIG. 1). These S1P agonists (or modulators) are useful for S1P-related diseases, and exemplified by the lymphopenia in vivo response. In general, test compounds were prepared in a solution containing 3% (w/v) 2-hydroxy propyl β-cyclodextrin (HPBCD) and 1% DMSO to a final concentration of 1 mg/ml, and subcutaneously injected to female C57BL6 mice (CHARLES RIVERS) weighing 20-25 g at the dose of 10 mg/Kg or 2 mg/Kg. […] Lymphocytes in blood samples were counted using a HEMAVET Multispecies Hematology System, HEMAVET HV950FS (Drew Scientific Inc.).

T1 sequence (P21453 whole entry): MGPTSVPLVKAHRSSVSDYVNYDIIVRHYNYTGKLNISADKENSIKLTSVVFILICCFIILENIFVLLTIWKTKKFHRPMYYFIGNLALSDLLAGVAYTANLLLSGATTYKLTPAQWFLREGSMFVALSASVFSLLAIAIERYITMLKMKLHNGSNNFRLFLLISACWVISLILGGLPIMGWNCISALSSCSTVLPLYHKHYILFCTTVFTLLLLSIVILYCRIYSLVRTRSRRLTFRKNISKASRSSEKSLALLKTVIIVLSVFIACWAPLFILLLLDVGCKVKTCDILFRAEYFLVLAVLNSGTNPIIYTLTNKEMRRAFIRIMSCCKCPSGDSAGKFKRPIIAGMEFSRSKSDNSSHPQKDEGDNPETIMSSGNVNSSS

O=P(O)(O)OCCNCc1ccc(CCCCCCc2ccccc2)c2cccnc12 [Compound 11, 2-({[5-(6-phenylhexyl)quinolin-8-yl]methyl}amino)ethyl dihydrogen phosphate]
EC50 [1]: 0.00219 µM

O=P(O)(O)CCCNCc1ccc(C#CCCCc2ccccc2)c2cccnc12 [Compound 8, [3-({[5-(5-phenylpent-1-yn-1-yl)quinolin-8-yl]methyl}amino)propyl]phosphonic acid]
EC50 [1]: 0.543 µM

O=P(O)(O)CCCNCc1ccc(C#CCCCCc2ccccc2)c2cccnc12 [Compound 4, [3-({[5-(6-phenylhex-1-yn-1-yl)quinolin-8-yl]methyl}amino)propyl]phosphonic acid]
EC50 [1]: 0.204 µM

O=P(O)(O)CCCNCc1ccc(CCCCCCc2ccccc2)c2ccccc12 [Compound 19, [3-({[4-(6-phenylhexyl)-1-naphthyl]methyl}amino)propyl]phosphonic acid]
EC50 [1]: 0.00559 µM

COc1cccc(CCCCC#Cc2ccc(CNCCCP(=O)(O)O)c3ncccc23)c1 [Compound 12, {3-[({5-[6-(3-methoxyphenyl)hex-1-yn-1-yl]quinolin-8-yl}methyl)amino]propyl}phosphonic acid]
EC50 [1]: 0.0183 µM

O=P(O)(O)CCCNCc1ccc(CCCCCCc2ccccc2)c2cccnc12 [Compound 7, [3-({[5-(6-phenylhexyl)quinolin-8-yl]methyl}amino)propyl]phosphonic acid]
EC50 [1]: 0.00545 µM

CCCCCCCC/C=C/c1ccc(CNCCCP(=O)(O)O)c2ccccc12 [Compound 15, {3-[({4-[(1E)-dec-1-en-1-yl]-1-naphthyl}methyl)amino]propyl}phosphonic acid]
EC50 [1]: 0.138 µM

CCCCCCCCC#Cc1ccc(CNCCCP(=O)(O)O)c2ncccc12 [Compound 2, (3-{[(5-dec-1-yn-1-ylquinolin-8-yl)methyl]amino}propyl)phosphonic acid]
EC50 [1]: 0.00339 µM

O=P(O)(O)CCCNCc1ccc(C#CCCCCCc2ccccc2)c2cccnc12 [Compound 3, [3-({[5-(7-phenylhept-1-yn-1-yl)quinolin-8-yl]methyl}amino)propyl]phosphonic acid]
EC50 [1]: 0.094 µM

CCCCCCCCCCc1ccc(CNCCCP(=O)(O)O)c2ncccc12 [Compound 1, (3-{[(5-decylquinolin-8-yl)methyl]amino}propyl)phosphonic acid]
EC50 [1]: 0.00153 µM

COc1cccc(CCCCCCc2ccc(CNCCCP(=O)(O)O)c3ncccc23)c1 [Compound 13, {3-[({5-[6-(3-methoxyphenyl)hexyl]quinolin-8-yl}methyl)amino]propyl}phosphonic acid]
EC50 [1]: 0.00768 µM

O=P(O)(O)OCCNCc1ccc(CCCCCCc2ccccc2)c2ccccc12 [Compound 18, 2-({[4-(6-phenylhexyl)-1-naphthyl]methyl}amino)ethyl dihydrogen phosphate]
EC50 [1]: 0.0555 µM

O=P(O)(O)CCCNCc1ccc(CCCCCCCc2ccccc2)c2cccnc12 [Compound 5, [3-({[5-(7-phenylheptyl)quinolin-8-yl]methyl}amino)propyl]phosphonic acid]
lymphocyte count ([2]; after dosing, FIG. 1 legend): lowered lymphocyte count
number of lymphocytes ([2]; subcutaneously injected, 10 mg/Kg or 2 mg/Kg, FIG. 1): < 1 10^3/μL blood
EC50 [1]: 0.173 µM

O=P(O)(O)CCCNCc1ccc(C#CCCCCc2ccccc2)c2ccccc12 [Compound 16, [3-({[4-(6-phenylhex-1-yn-1-yl)-1-naphthyl]methyl}amino)propyl]phosphonic acid]
EC50 [1]: 0.00488 µM
